# Experimental data: patent US20030022871A1, “Method for modulating tumor growth and metastasis of tumor cells” (priority 2002, published 2003)
# How the values were obtained:
# E12 [1] = molecular target: T1, E12 (Homo sapiens, UniProt P15923); assay: Native polyacrylamide gel binding of tritiated tetracycline to protein; settings: 10-30-fold molar excess of tritiated tetracycline, PBS, room temperature 30 minutes, 8% native gel autoradiogram
# T1 construct: expressed in transfected cells
# T1 sequence (P15923 1-654): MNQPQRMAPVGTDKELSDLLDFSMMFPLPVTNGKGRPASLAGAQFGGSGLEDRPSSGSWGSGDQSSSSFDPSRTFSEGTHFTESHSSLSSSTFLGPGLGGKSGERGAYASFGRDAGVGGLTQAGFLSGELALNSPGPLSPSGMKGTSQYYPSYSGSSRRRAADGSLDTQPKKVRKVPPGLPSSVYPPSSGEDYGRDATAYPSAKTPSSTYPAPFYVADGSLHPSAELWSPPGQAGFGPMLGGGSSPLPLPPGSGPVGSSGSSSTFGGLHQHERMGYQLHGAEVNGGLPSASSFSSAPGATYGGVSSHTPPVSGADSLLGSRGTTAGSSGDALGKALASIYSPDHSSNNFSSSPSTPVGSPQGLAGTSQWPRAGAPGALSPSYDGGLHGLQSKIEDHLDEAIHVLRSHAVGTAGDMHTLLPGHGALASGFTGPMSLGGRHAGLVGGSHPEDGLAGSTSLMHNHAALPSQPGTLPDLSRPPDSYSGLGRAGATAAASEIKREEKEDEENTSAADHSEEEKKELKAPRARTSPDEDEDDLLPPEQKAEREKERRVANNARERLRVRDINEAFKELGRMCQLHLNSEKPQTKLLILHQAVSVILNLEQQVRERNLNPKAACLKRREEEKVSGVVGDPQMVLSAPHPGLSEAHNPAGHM
# Method: (§1) Radiolabeled tetracycline (tritiated) was mixed with purified Id1 protein and other proteins separately to permit contact between the labeled tetracycline and the proteins. […] The complexes could then be visualized in an autoradiogram of the gel, e.g., exposure of the gel to x-ray film.
# (§2) In this experiment, a 10-30-fold molar excess of tritiated tetracycline was added to the indicated proteins separately in 10 Tl reaction tube containing one of the proteins and phosphate buffered saline at physiological pH. Proteins used in this experiment were:
# (§3) The mixtures were incubated at room temperature for 30 minutes. Bromophenol blue was added to each sample at 0.01% (v/v). The samples were then electrophoresed on an 8% native polyacrylamide gel.
# (§4) After electrophoresing the samples, the gel was dried and exposed to autoradiographic film for 12 hours to make an autoradiogram of the gel.
# E47 = molecular target: T2, E47 (Homo sapiens, UniProt P15923); assay: as above; settings: 10-30-fold molar excess of tritiated tetracycline, PBS, room temperature 30 minutes, 8% native gel autoradiogram
# T2 sequence (P15923 1-651 isoform P15923-2): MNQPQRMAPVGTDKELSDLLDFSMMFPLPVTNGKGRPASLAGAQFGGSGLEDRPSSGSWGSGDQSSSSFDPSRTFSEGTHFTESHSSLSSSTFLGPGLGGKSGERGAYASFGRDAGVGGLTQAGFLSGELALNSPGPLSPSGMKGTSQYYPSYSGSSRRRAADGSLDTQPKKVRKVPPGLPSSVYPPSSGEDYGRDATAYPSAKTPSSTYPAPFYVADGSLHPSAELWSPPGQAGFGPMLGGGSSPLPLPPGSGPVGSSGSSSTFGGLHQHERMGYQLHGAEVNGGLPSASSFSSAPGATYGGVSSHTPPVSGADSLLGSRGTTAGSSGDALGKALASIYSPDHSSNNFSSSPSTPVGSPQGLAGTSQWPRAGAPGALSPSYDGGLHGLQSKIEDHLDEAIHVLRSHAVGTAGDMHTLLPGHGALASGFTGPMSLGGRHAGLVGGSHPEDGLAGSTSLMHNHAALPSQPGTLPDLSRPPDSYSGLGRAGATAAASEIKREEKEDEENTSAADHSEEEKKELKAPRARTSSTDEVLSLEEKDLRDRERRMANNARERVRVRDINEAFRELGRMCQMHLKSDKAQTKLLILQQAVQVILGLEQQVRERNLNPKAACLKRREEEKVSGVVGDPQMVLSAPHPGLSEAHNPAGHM
# Method: as §1, §2, §3, §4
# [2] = system: Hsp90 (heat shock protein 90); assay: as above; settings: 10-30-fold molar excess of tritiated tetracycline, PBS, room temperature 30 minutes, 8% native gel autoradiogram
# Method: as §1, §2, §3, §4
# [3] = system: Id old, an old preparation of Id in which the protein's conformation is perturbed; assay: as above; settings: 10-30-fold molar excess of tritiated tetracycline, PBS, room temperature 30 minutes, 8% native gel autoradiogram
# Method: as §1, §2, §3, §4
# [4] = system: Id1 new, the normal protein (native Id1); assay: as above; settings: 10-30-fold molar excess of tritiated tetracycline, PBS, room temperature 30 minutes, 8% native gel autoradiogram
# Method: as §1, §2, §3, §4
# MyoD = molecular target: T3, MyoD (Homo sapiens, UniProt P15172); assay: as above; settings: 10-30-fold molar excess of tritiated tetracycline, PBS, room temperature 30 minutes, 8% native gel autoradiogram
# T3 sequence (P15172 1-320): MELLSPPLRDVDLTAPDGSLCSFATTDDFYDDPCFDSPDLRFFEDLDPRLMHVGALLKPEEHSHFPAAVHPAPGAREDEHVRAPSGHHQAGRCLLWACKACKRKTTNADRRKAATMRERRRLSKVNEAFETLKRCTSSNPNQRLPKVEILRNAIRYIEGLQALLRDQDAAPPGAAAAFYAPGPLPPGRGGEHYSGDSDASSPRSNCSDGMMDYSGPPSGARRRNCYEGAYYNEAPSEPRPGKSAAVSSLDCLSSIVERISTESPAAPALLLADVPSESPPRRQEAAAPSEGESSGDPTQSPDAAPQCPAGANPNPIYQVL
# Method: as §1, §2, §3, §4
# Id1 [5] = molecular target: T4, Id1 (Homo sapiens, UniProt P41134); assay: Gel shift: Id1 antagonism of E47 binding to radiolabeled DNA; assay type: biochemical
# T4 sequence (P41134 1-155): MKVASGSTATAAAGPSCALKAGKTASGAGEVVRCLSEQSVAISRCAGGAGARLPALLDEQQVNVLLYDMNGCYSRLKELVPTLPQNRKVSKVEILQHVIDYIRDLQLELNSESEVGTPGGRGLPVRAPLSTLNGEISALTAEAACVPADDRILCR
# Method: Purified Id1 and its target protein E12 are mixed to together in vitro, and the ability of Id1 to antagonize DNA binding capacity of E12 is measured. To measure E12 DNA binding activity, the mixtures were incubated with radiolabeled DNA sequences to which E12 binds and the protein/DNA complexes resolved on a native polyacrylamide gel as described [Benezra, 1994 #463].
# In this experiment, 50 nanograms of E47 protein (described in Example I) was present in reaction mixtures of 100, 200, and 400 nanograms of Id1, designated +, ++, and +++ respectively in FIG. 2. Tetracycline was added to the reactions as indicated (+) to about 200 Tg/ml final concentration. Radiolabeled DNA to which E47 binds was then introduced in each mixture. […] Each of the mixtures was permitted to incubate at room temperature for about 30 minutes. Then, the mixtures were electrophoresed in an 8% native polyacrylamide gel as described in Benezra, 1994.
# After electrophoresing the samples, the gel was dried and exposed to autoradiographic film to make an autoradiograph of the gel.
# Id1 [6] = molecular target: T4, Id1; assay: 4R-TK-CAT reporter assay with E12 and Id1 plasmids in mammalian culture cells; assay type: cell-based
# Text: (§5) Plasmids capable of expressing proteins when introduced into mammalian culture cells were used to test the activity of those proteins. In the assay depicted below, a plasmid that contains sequences to which the E12 protein binds upstream of a reporter gene (4R-TK-CAT) ix mixed with an E12 encoding plasmid and an Id plasmid to see if Id can inhibit the ability of E12 protein to bind and activate the reporter gene, in a similar to that described in Pesce, 1993 #163. If E12 binds to its sequence in the 4R-TK-CAT vector, it causes expression of the chloramphenical acetyltransferase (CAT) gene. The protein product of the CAT gene has an enzymatic activity that can be quantified. Uptake of the various plasmids was normalized to the expression of luciferase activity from a separate plasmid added in equal amounts to all cultures.
# E12 [7] = molecular target: T1, E12; assay: 4R-TK-CAT reporter assay with E12 plasmid alone in mammalian culture cells; assay type: cell-based; settings: E12 plasmid without Id1, tetracycline 100
# Text: as §5
structure (smiles),measurement,setting,value
"CN(C)[C@@H]1C(O)=C(C(N)=O)C(=O)[C@@]2(O)C(O)=C3C(=O)c4c(O)cccc4[C@@](C)(O)[C@H]3C[C@@H]12 [tetracycline, [4S-(4I,5aI,5aI,6J,12aI)]-4-(Dimethylamino)-1,4,4a,5,5a,6-11,12a-octahydro-3,6, 10,12,12a-peiztaiydroxy-6-methyl-1,11-dioxo-2-naphthacenecarboxamide]",Binding of radiolabeled tetracycline to E12 (lane 2),E12 [1],did not bind
same,Binding of radiolabeled tetracycline to E47 (lane 6),E47,did not bind
same,Binding of radiolabeled tetracycline to Hsp90 (lane 1),[2],did not bind
same,Binding of radiolabeled tetracycline to old Id having a perturbed conformation (lane 3),[3],no radiolabeled tetracycline was detected
same,Binding of radiolabeled tetracycline to native Id1 (lane 4),[4],bound to native Id1
same,Binding of radiolabeled tetracycline to MyoD (lane 5),MyoD,did not bind
same,E47/DNA complex band intensity with tetracycline (lane 4) versus without (lane 3),"Id1 [5]; 50 nanograms E47, 100 nanograms Id1, tetracycline about 200 Tg/ml, same said for lanes 6 vs 5 and 8 vs 7 (200, 400 nanograms Id1)",much more intense
same,"Effect on Id activity, i.e. dimerizing with a protein member of the HLH super family, in vitro","Id1 [5]; tetracycline about 200 Tg/ml, 50 nanograms E47, 100-400 nanograms Id1",clearly inhibits Id activity
same,"Effect of tetracycline on Id1 inhibition of E12 (4R-TK-CAT reporter), Id1 high","Id1 [6]; Id1 10:1 molar excess over E12, tetracycline 100",no longer effective
same,"E12 binding activity (4R-TK-CAT reporter) in presence of tetracycline, Id1 (low)","Id1 [6]; Id1 plasmid at 3:1 molar excess of E12, tetracycline 100",partially restored
same,Effect of tetracycline on E12 activation of 4R-TK-CAT,E12 [7],not effected
